For series [1], the system named is C57Bl/6 mice, pulmonary vasculitis induced by immune complexes. In words: Pulmonary vasculitis induced by immune complexes: neutrophils in bronchoalveolar lavages (flow cytometry). It counts as in vivo. To be noted: HCQ 10 mg/kg, CB137 10, 30 and 100 mg/kg, 4 hours after instillation, compared to control + (FIG. 5). Here is the method:
Female C57Bl/6 strain mice from the Jackson Laboratory, 8-10 weeks old and weighing about 20 g, are used in all experiments. The mice are maintained at a temperature of 23° C.±1° C. with 12-hour light/dark cycle. Mice have access to water and food ad libitum and are housed at least one week before the beginning of any experiments.
A retro-orbital blood sampling was performed using capillaries containing heparin on mice anesthetized with isoflurane the day before the manipulation. The next day, the mice were anesthetized with a mixture of ketamine and xylasin (90 mg/kg and 125 mg/kg, respectively). The immune IgG complex is induced in the lungs by intratracheal instillation of 0.5 mg of anti-BSA rabbit antibody (MP Biomedicals, Strasbourg, France) and by the administration of 0.5 mg per mouse of BSA antigen in the caudal vein (Warner et al., 2001 and Warren et al., 1989). The specified treatment (PF-1355, CB137 or solvent alone) is administered enterally. The animals are euthanized 4 hours after intratracheal instillation.
The animals are euthanized 4 hours after the intratracheal instillation by a lethal injection of pentobarbital. A submandibular blood sample is taken. […] The total number of cells, excluding any residual red cells and dead cells stained with trypan blue, is determined under the light microscope on a Malassez cell. […]
For orientation: A flow cytometer gives signals particle by particle.

In the next series the target is T1, myeloperoxidase (MPO) (Homo sapiens, UniProt P05164).
T1 construct: purchased
T1 sequence (P05164 49-745): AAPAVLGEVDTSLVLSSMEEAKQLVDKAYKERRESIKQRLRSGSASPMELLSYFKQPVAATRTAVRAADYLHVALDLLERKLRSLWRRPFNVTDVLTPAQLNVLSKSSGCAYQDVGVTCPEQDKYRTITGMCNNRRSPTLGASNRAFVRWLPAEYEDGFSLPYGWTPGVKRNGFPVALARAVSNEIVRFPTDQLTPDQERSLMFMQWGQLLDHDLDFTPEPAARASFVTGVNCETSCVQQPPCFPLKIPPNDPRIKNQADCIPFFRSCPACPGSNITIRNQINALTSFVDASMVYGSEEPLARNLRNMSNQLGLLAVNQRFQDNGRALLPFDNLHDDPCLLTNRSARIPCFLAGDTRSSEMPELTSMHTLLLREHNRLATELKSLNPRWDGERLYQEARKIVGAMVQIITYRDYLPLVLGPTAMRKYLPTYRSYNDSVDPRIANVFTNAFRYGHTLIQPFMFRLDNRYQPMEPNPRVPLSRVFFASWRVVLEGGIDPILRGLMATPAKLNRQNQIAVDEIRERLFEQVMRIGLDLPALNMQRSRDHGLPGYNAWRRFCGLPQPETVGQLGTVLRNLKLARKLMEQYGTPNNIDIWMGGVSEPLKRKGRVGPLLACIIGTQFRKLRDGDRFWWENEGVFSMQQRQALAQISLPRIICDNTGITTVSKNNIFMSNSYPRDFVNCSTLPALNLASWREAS
In words: Surface plasmon resonance (Biacore 3000) affinity on MPO. It counts as binding. To be noted: SPR at 25° C. Here is the method:
Using the surface plasmon resonance technology (Biacore 3000), the interaction constants between HCQ analogues (HCQa) and myeloperoxidase (MPO) targets and αB-crystalline (αB-C) were measured at 25° C. according to 12 different series of experiments. First, HCQ analogues at five different concentrations (10^−6 to 10^−8 M) were injected at a rate of 10^−6 L/min for 250 s on the MPO and αB-C targets as well as on the ERK1 and ERK2 controls, followed by a dissociation phase of 150 s.
The kinetic parameters were measured using the BIAevaluation 4.1 software. The set of resonance unit values obtained with the controls were subtracted from those obtained with MPO and αB-C to compensate for non-specific bonds.
The differences in Kd values for the myeloperoxidase (MPO) and αB-crystalline (αB-C) enzymes in Tables 1 and 2 are due to the variability of commercial batches. Nevertheless, the difference between the Kd of the compounds HCQ and CB137 remains identical according to these two tests.
Analysis of the compounds in the form of sulphate salts according to the method described above: […]
(Surface plasmon resonance follows binding to a sensor surface in real time, without labels.)

For another series, the system named is retina of mice. In words: Determination of retinopathy: histological analysis of the retina. Format: in vivo. To be noted: HCQ 10 mg/kg or CB137 5, 10 and 15 mg/kg, 5 times weekly for 62 days (FIGS. 3 and 4). Here is the method:
Histology: 7-week-old mice are injected with 10 mg/kg HCQ or 5, 10 and 15 mg/kg of the CB137 analog 5 times weekly for a period of 62 days. After assigning them a number, the mice are randomized according to their weight and treatment. The mice are divided in groups of 5 in cages, one mouse being treated with the carrier, one with HCQ 10 mg/kg, one with CB137 5 mg/kg, one with CB137 10 mg/kg and one with CB137 15 mg/Kg. The mice are housed in an environment maintained at a temperature of 22° C., 35-55% humidity and with 12-hour cycles of light/darkness.
At the end of the experiment, the mice are euthanized by cervical dislocation. The eyeballs are isolated and stored in a solution containing 4% paraformaldehyde, 5% glutaraldehyde and 0.1 M sodium cacodylate overnight at 4° C. The samples are washed, dehydrated and embedded in paraffin. The 4-μm retinal sections are stained with 1% toluidine blue followed by 1% methylene blue. The retinal toxicity of the samples is then determined by analysis of the sections under microscope.

[2] abbreviates: Table 2, compounds in the form of sulphate salts.

By Kd is commonly meant the free concentration of one partner at which half of the binding sites on the other are occupied at equilibrium, for simple one-to-one binding.

For `CCN(CCO)CCCC(C)Nc1c(Cl)cnc2cc(Cl)ccc12` (centres unmarked) [CB137], the “amount of neutrophils in bronchoalveolar lavages / lungs” value in series [1] is on record as “decreases the amount of neutrophils”. The dissociation constant (Kd) at myeloperoxidase (MPO) (Table 1) amounted to 6.59 nM; on myeloperoxidase (MPO) (setting [2]), 60 nM. Moreover, the “retinal lesions (histology)” value in the series on retina of mice is reported as “does not induce more lesions than in the control mice”.

Take `CCN(CCO)CCCC(C)Nc1ccnc2cc(Cl)ccc12` (centres unmarked) [Commercial HCQ, hydroxychloroquine]: the “amount of neutrophils in bronchoalveolar lavages / lungs” value in series [1] is “slightly increase the amount of neutrophils”. Further, the equilibrium dissociation constant (Kd) at myeloperoxidase (MPO) (Table 1) is 710 nM; on myeloperoxidase (MPO) (setting [2]) it was 4000 nM. In addition, in the series on retina of mice, the “retinal lesions (histology)” value is recorded as “induces retinal lesions”.

The values are drawn from patent publication US10647677B2, “Analogues of hydroxychloroquine (HCQ) without retinal toxicity” (Inoviem Scientific, priority 2015, dated 2020).
